Source: patent US20110086872A1, “Berberine as a selective lung cancer agent and other compositions and methods” (priority 2007, published 2011)
pIC50: −log10 of the molar value. Like-named read-outs stand apart in the source and are kept apart here.

What was measured:
[1] = test system: human cancer cell lines tested; experiment: Cytotoxic activity against panel of human cancer cell lines; assay type: cell-based
[2] = test system: D6 clone of P. falciparum; experiment: Antimalarial activity, D6 clone; assay type: cell-based
Procedure: (§1) The plant partitions were evaluated using in vitro bioassays based on a panel of human cancer cell lines: BC, Human Breast; Col2, Human Colon; KB, Human Carcinoma of the Nasopharynx; KBV1, Vinblastine-resistant KB; LNCaP, Hormone-dependent Human Prostate, and ZR75-1, Hormone-dependent Human Breast. These lines represent the main priorities for anticancer screening of the National Cancer Institute and have been well documented (Lin et al., J. Nat. Prod. 56: 22-29 (1993). In addition, samples were evaluated against the HIV-1 reverse transcriptase assay and, if active, against HIV-2 RT assay and a TIBO-resistant HIV-1 strain. Furthermore, some samples were tested for antimalarial activity (Angerhofer, Advances in Natural Products Chemistry, ed. Atta-ur-Rahman, pp 311-329 (1992)).
(§2) Thus, extracts, fractions and isolated compounds of plants were evaluated against three basic disease states: cancer, AIDS and malaria according to the published and established protocols and procedures. […] ((Angerhofer, Advances in Natural Products Chemistry, ed. Atta-ur-Rahman, pp 311-329 (1992), Monks et al., J. Nat'l Cancer Inst. 83: 11, 757-766 (1991), Tan et al., J. Nat. Product 54:143-154 (1991), Tan et al., Biochem. Biophysics. Res. Commun. 185:370-378 (1992), Geran et al., Cancer Chemother. Rep., Part 3, 3: 1-17 (1972), Skehan et al., J. Nat'l Cancer Inst. 82:1107-1112 (1990).) […]

[3] = test system: W2 clone of P. falciparum; experiment: Antimalarial activity, W2 clone; assay type: cell-based
Procedure: as §1, §2

[4] = target: T1, human immunodeficiency virus-1 reverse transcriptase (HIV-1 RT) (Human immunodeficiency virus type 1 group M subtype B, UniProt P03366); assay type: biochemical; details: no unit or quantity printed
T1 construct: human immunodeficiency virus-1 reverse transcriptase (HIV-1 RT)
Procedure: as §1
Thus, extracts, fractions and isolated compounds of plants were evaluated against three basic disease states: cancer, AIDS and malaria according to the published and established protocols and procedures. […] ((Angerhofer, Advances in Natural Products Chemistry, ed. Atta-ur-Rahman, pp 311-329 (1992), Monks et al., J. Nat'l Cancer Inst. 83: 11, 757-766 (1991), Tan et al., J. Nat. Product 54:143-154 (1991), Tan et al., Biochem. Biophysics. Res. Commun. 185:370-378 (1992), Geran et al., Cancer Chemother. Rep., Part 3, 3: 1-17 (1972), Skehan et al., J. Nat'l Cancer Inst. 82:1107-1112 (1990).)

[5] = test system: D6 clone of P. falciparum; details: Vennestrom and Klayman, 1988; read-out: literature IC50 against D6 clone of P. falciparum; cited from earlier work
[6] = test system: Lung, Lu1 human cancer cell line; details: cited from earlier work
[7] = test system: Breast, BC1 human cancer cell line; details: cited from earlier work
[8] = test system: Lu1 human lung cancer cell line; experiment: Cytotoxic activity against Lu1 cancer cell line; assay type: cell-based; details: pure isolates
Procedure: The CHCl3 was fractionated over a silica gel column (5×60 cm, 700 g, 63-200 μm). For the column chromatography, a CHCl3/MeOH gradient solvent system was applied with a gradual increase of the MeOH content. Fourteen fractions were collected based on the similarity of their TLC profiles. The fractions were then evaluated for their cytotoxic activity against Lu1 cancer cell line in order to determine the active fractions. […] (See FIG. 4, Table 2).

[9] = test system: W2 clone of P. falciparum; details: Vennestrom and Klayman, 1988; read-out: literature IC50 against W2 clone of P. falciparum; cited from earlier work
[10] = test system: Colon, Col 2 human cancer cell line; details: cited from earlier work

SMILES | pIC50 ([1]; all cell lines of the panel, read-out: IC50 values against all of the human cancer cell lines tested) | selectivity index (SI), D6 ([2]; D6 clone) | pIC50 ([2]; Plasmodium falciparum, D6, read-out: IC50 against D6 clone of P. falciparum) | pIC50 ([1]; Homo sapiens, cancer cell lines other than lung, read-out: IC50 values, other cancer cell lines tested) | pIC50 ([3]; Plasmodium falciparum, W2, read-out: IC50 against W2 clone of P. falciparum) | selectivity index (SI), W2 ([3]; W2 clone) | anti-HIV activity against HIV-1 RT, value [4] | pIC50 [5] | pIC50 [6] | pIC50 [7] | pIC50 [8] | pIC50 [9] | pIC50 [10]
COc1ccc2c(c1OC)C(=O)N1CCc3cc4c(cc3C(=O)C21O)OCO4 (racemic) [(±)-Chilenine] | 4.48 to 4.80 | – | – | – | – | – | – | – | – | – | – | – | –
COc1ccc2cc3[n+](cc2c1OC)CCc1cc2c(cc1-3)OCO2 [berberine] | – | 53.6 | 5.96 | < 4.23 | 5.49 | 18.7 | 353.3 | 6.38 | 4.60 | 5.56 | 4.92 | 6.36 | 4.40
